Molecular target: human Kv7.2 (Homo sapiens (Human), UniProt O43526)
Test: SyncroPatch 384 electrophysiology, activation of Kv7.2 in CHO cells
Assay type: cell-based
Settings: for EC50: CHO cells stably expressing human Kv7.2, potassium current at -90 mV repolarizing step, in presence of zinc pyrithione; for Emax: CHO, Kv7.2 activation max %, relative to 30 μM ML-213 max activation
Method: The potency of Kv7 potentiators was determined using the SyncroPatch 384 (Nanion) high throughput electrophysiology platform.
CHO cells stably expressing either human Kv7.2, Kv7.4 or Kv7.5/7.3 under a constitutive CMV promoter were used for these studies. Cells were maintained in F12 Hams+1 mM L-glutamine (Hyclone) supplemented with 10% FBS (Sigma), 0.3×NEAA (Non-essential Gamino-acids) and 400 ug/ml G418 at 37° C. in 5% CO2. Cells were cultured in T-225 flasks (Nunc) for 2-3 days to reach 85-95% confluence prior to electrophysiological recording.
Earle's balanced salt solution (in mM): 135 NaCl, 5.4 KCl, 5 Glucose, 2 CaCl2, 1 MgCl2, 5 HEPES, pH 7.4. Seal enhancer solution (in mM): 90 NaCl, 3 KCl, 35 CaCl2, 10 MgCl2, 10 HEPES, pH 7.4. Extracellular recording solution (in mM): 71 NaCl, 70 NMDG, 13 KCl, 5 Glucose, 2 CaCl2, 1 MgCl2, 10 HEPES, pH 7.4. Intracellular recording solution (in mM): 130 KF, 20 KCl, 4 EGTA, 10 HEPES, 2 EDTA, 0.01 Escin, pH 7.2.
Cells were harvested for electrophysiological recording upon reaching appropriate confluence. Cells were first washed in DPBS (Hyclone, Cat #SH30028.03) and then 2 ml of Accutase (MP Biomedicals #1000449) was added at 28° C. until ˜90% of cells were suspended. F12 HAM's media+1 mM L-glutamine (Hyclone, SH30026.02) was then added to the flask to dilute the accutase. Cells were then triturated until a single cell suspension was achieved, a cell count was performed, and cells were centrifuged for 2 min. at 1,000 rpm. Media was then aspirated, and cells were resuspended in Earle's balanced salt solution to a concentration of 0.75×10^6 cells/ml and allowed to recover for 25 min at 10° C.
At the beginning of each assay, 20 μl of cell suspension was dispensed into each well of a multi-hole 384-well SyncroPatch chip by the onboard pipettor. Cell sealing was initiated, and seal enhancer solution was added to facilitate seal formation. Upon completion of sealing, cells were washed 3 times with extracellular recording solution and the assay voltage protocol was started. Human Kv7.2, Kv7.4 or Kv7.5/7.3 channels were evaluated using a voltage protocol in which cells were voltage-clamped at a holding potential of −60 mV. Potassium currents were continuously activated with a series of three voltage steps to −30 mV for 3 seconds, 40 mV for 1 second and −90 mV for 4 seconds with 12 seconds between successive voltage sweeps. Potassium currents were measured from the −90 mV repolarizing step. Baseline current was assessed for 3.5 minutes prior to the addition of 5.6 μM zinc pyrithione (1 μM for Kv7.4). Kv7.2, Kv7.4 or Kv7.5/7.3 current in the presence of zinc pyrithione was acquired over five minutes to allow channels to reach steady state activity prior to addition of test agents. Channel activity was monitored for three minutes preceding the addition of 30 μM ML-213 (3 minutes) to achieve maximum activation. 150 mM TEA with 10 μM XE-991 was applied for 2 minutes to measure the leak current during maximum inhibition of Kv7.2, Kv7.4 or Kv7.5/7.3 channels.
Data were collected on the SyncroPatch platform using PatchControl software (Nanion) and processed and analyzed using DataControl Software (Nanion). Percent activation was calculated from potassium current as follows: The average current for the 5 sweeps in the presence of zinc pyrithione immediately preceding test agent addition was taken as the ‘control’ data. Likewise, the average potassium current in the presence of test agents 5 sweeps immediately preceding addition of 30 μM ML-213 was determined for ‘drug’ data. The average potassium current 5 sweeps immediately prior to addition of 150 mM TEA+10 μM XE-991 was determined for ‘max activation’ data while average currents from 5 sweeps immediately following addition of TEA was determined for ‘max inhibition’ data. Percent activation for each of the 384-wells of a sealchip was calculated as ((‘drug’−‘max inhibition’)/(‘max activation’−‘max inhibition’))*100 with Pipeline Pilot (Accelrys). […]

EC50 [nM] | Emax [%] | SMILES
2140 | 52 | O=C(NCc1ccnc(-n2ccnc2)c1)NC1CC1C1CCCCC1 (stereo not drawn) [Example 11, 1-(2-cyclohexylcyclopropyl)-3-[(2-imidazol-1-ylpyridin-4-yl)methyl]urea]
1340 | 74 | O=C(NCc1ccnc(-n2cccn2)c1)N[C@@H]1C[C@H]1c1ccccc1 [Example 13, 1-[(1R,2S)-2-phenylcyclopropyl]-3-[(2-pyrazol-1-ylpyridin-4-yl)methyl]urea]
70 | 71 | O=C(NCc1ccnc(OCC(F)(F)F)c1)N[C@@H]1C[C@H]1c1ccccc1 [Example 14, 1-[(1R,2S)-2-phenylcyclopropyl]-3-[[2-(2,2,2-trifluoroethoxy)pyridin-4-yl]methyl]urea]
960 | 57 | O=C(NCc1ccnc(OC2COC2)c1)N[C@@H]1C[C@H]1c1ccccc1 [Example 16]
3020 | 62 | N#Cc1cccc(CNC(=O)N[C@@H]2C[C@H]2c2ccccc2)n1 [Example 18, 1-[(6-cyanopyridin-2-yl)methyl]-3-[(1R,2S)-2-phenylcyclopropyl]urea]
6830 | 60 | O=C(NCc1ccnc(Cl)c1)N[C@@H]1C[C@H]1c1ccccc1 [Example 19, 1-[(2-chloropyridin-4-yl)methyl]-3-[(1R,2S)-2-phenylcyclopropyl]urea]
5930 | 58 | O=C(NCc1ccnc(OC2CCOCC2)c1)N[C@@H]1C[C@H]1c1ccccc1 [Example 20, 1-[[2-(oxan-4-yloxy)pyridin-4-yl]methyl]-3-[(1R,2S)-2-phenylcyclopropyl]urea]
3200 | 72 | O=C(NCc1ccnc(C(F)F)c1)N[C@@H]1C[C@H]1c1ccccc1 [Example 21, 1-[[2-(difluoromethyl)pyridin-4-yl]methyl]-3-[(1R,2S)-2-phenylcyclopropyl]urea]
720 | 53 | O=C(NCc1ccnc(C(F)(F)F)c1)N[C@@H]1C[C@H]1c1ccccc1 [Example 22, 1-[(1R,2S)-2-phenylcyclopropyl]-3-[[2-(trifluoromethyl)pyridin-4-yl]methyl]urea]
1050 | 60 | O=C(NCc1ccnc(OC2CCC2)c1)N[C@@H]1C[C@H]1c1ccccc1 [Example 25, 1-[(2-cyclobutyloxypyridin-4-yl)methyl]-3-[(1R,2S)-2-phenylcyclopropyl]urea]
1560 | 97 | CC(F)(F)c1cc(CNC(=O)N[C@@H]2C[C@H]2c2ccccc2)ccn1 [Example 26, 1-[[2-(1,1-difluoroethyl)pyridin-4-yl]methyl]-3-[(1R,2S)-2-phenylcyclopropyl]urea]
2840 | 45 | O=C(NCc1ccnc(-n2ccnc2)c1)N[C@@H]1C[C@H]1c1ccccc1 [Example 27, 1-[(2-imidazol-1-ylpyridin-4-yl)methyl]-3-[(1R,2S)-2-phenylcyclopropyl]urea]
1360 | 62 | O=C(NCc1ccnc(OC(F)(F)F)c1)N[C@@H]1C[C@H]1c1ccccc1 [Example 28, 1-[(1R,2S)-2-phenylcyclopropyl]-3-[[2-(trifluoromethoxy)pyridin-4-yl]methyl]urea]
520 | 47 | COc1cc([C@H](C)NC(=O)N[C@@H]2C[C@H]2c2ccccc2)ccn1 [Example 29, 1-[(1S)-1-(2-methoxypyridin-4-yl)ethyl]-3-[(1R,2S)-2-phenylcyclopropyl]urea]
210 | 72 | C[C@H](NC(=O)N[C@@H]1C[C@H]1c1ccccc1)c1ccnc(OC(F)F)c1 [Example 30, 1-((S)-1-(2-(difluoromethoxy)pyridin-4-yl)ethyl)-3-((1R,2S)-2-phenylcyclopropyl)urea]
500 | 44 | O=C(NCc1ccnc(-n2cnc(C(F)(F)F)c2)c1)N[C@@H]1C[C@H]1c1ccccc1 [Example 31, 1-[(1R,2S)-2-phenylcyclopropyl]-3-[[2-[4-(trifluoromethyl)imidazol-1-yl]pyridin-4-yl]methyl]urea]
3020 | 40 | O=C(NCc1ccnc(C2COC2)c1)N[C@@H]1C[C@H]1c1ccccc1 [Example 32]
310 | 40 | C[C@H](NC(=O)N[C@@H]1C[C@H]1c1ccccc1)c1ccnc(-n2cnc(C(F)(F)F)c2)c1 [Example 33, 1-[(1R,2S)-2-phenylcyclopropyl]-3-[(1S)-1-[2-[4-(trifluoromethyl)imidazol-1-yl]pyridin-4-yl]ethyl]urea]
4780 | 62 | O=C(NCc1ccnc(Oc2ccccc2)c1)N[C@@H]1C[C@H]1c1ccccc1 [Example 34, 1-[(2-phenoxypyridin-4-yl)methyl]-3-[(1R,2S)-2-phenylcyclopropyl]urea]
200 | 66 | O=C(NCc1ccnc(OCC(F)F)c1)N[C@@H]1C[C@H]1c1ccccc1 [Example 35, 1-[[2-(2,2-difluoroethoxy)pyridin-4-yl]methyl]-3-[(1R,2S)-2-phenylcyclopropyl]urea]
910 | 74 | O=C(NCc1ccnc(OCF)c1)N[C@@H]1C[C@H]1c1ccccc1 [Example 37]
70 | 78 | O=C(NCc1ccnc(-n2ccc(C(F)(F)F)n2)c1)N[C@@H]1C[C@H]1c1ccccc1 [Example 39, 1-[(1R,2S)-2-phenylcyclopropyl]-3-[[2-[3-(trifluoromethyl)pyrazol-1-yl]pyridin-4-yl]methyl]urea]
230 | 54 | O=C(NCc1ccnc(OC(F)F)c1)N[C@@H]1C[C@H]1C(F)(F)F [Example 41, 1-[[2-(difluoromethoxy)pyridin-4-yl]methyl]-3-[(1R,2R)-2-(trifluoromethyl)cyclopropyl]urea]
880 | 77 | O=C(NCc1ccnc(OC2CCOCC2)c1)NC1CC1C1CCCCC1 (stereo not drawn) [Example 45, 1-(2-cyclohexylcyclopropyl)-3-[[2-(oxan-4-yloxy)pyridin-4-yl]methyl]urea]
570 | 70 | O=C(NCc1ccnc(OCC(F)CF)c1)N[C@@H]1C[C@H]1c1ccccc1 (stereo partly drawn) [Example 48, 1-[[2-(2,3-difluoropropoxy)pyridin-4-yl]methyl]-3-[(1R,2S)-2-phenylcyclopropyl]urea]
3830 | 42 | O=C(NCc1ccnc(OC(F)F)n1)N[C@@H]1C[C@H]1C(F)(F)F [Example 49, 1-[[2-(difluoromethoxy)pyrimidin-4-yl]methyl]-3-[(1R,2R)-2-(trifluoromethyl)cyclopropyl]urea]
1000 | 43 | O=C(NCc1cc(OC(F)F)ncn1)N[C@H]1C[C@@H]1C(F)(F)F [Example 52, 1-[[6-(difluoromethoxy)pyrimidin-4-yl]methyl]-3-[(1S,2S)-2-(trifluoromethyl)cyclopropyl]urea]
